≈ marks a conversion by molar mass, not a printed value. Structures can show the parent of a compound that is named as a salt. Where two headings read alike, the source gives them in different places.
Tests used:
[1] = tested on: P-388 leukemia; experiment: Antitumor activity against P-388 leukemia in mice; assay type: in vivo; conditions: for Toxic Deaths: macroscopic autoptic findings; for antitumor activity compared with daunorubicin and doxorubicin: at the tolerated doses (100~200 mg/Kg)
Description: The antitumor activity of the same compounds was tested against P-388 leukemia in mice.
^(a) Mice were treated i.p. on day 1 after tumor cell inoculation.
^(b) Evaluated on the basis of macroscopic autoptic findings.
^(c) Injected as a water solution.
^(d) Injection as a 5% aqueous ethanol suspension.
^(e) Injected as a 1:9 Tween 80 : water suspension.

[2] = tested on: HeLa cells; experiment: Cytotoxic activity against HeLa cells in vitro (effect on HeLa cells viability); assay type: cell-based; conditions: Homo sapiens, read-out: ID50 (effect on HeLa cells viability in vitro)
Description: The cytotoxic activity of several of the new compounds according to the invention were tested against HeLa cells in vitro (time of exposure to the compounds=24 hours) in comparison with daunorubicin and doxorubicin.

[3] = dose 50 mg/Kg i.p. on day 1, III-a as 5% aqueous ethanol suspension, others as 1:9 Tween 80:water suspension
[4] = dose 100 mg/Kg i.p. on day 1, III-a as 5% aqueous ethanol suspension, others as 1:9 Tween 80:water suspension
[5] = dose 200 mg/Kg i.p. on day 1, III-a as 5% aqueous ethanol suspension, others as 1:9 Tween 80:water suspension
[6] = dose 4.4 mg/Kg i.p. on day 1, water solution
[7] = dose 4.4 mg/Kg i.p. on day 1 after tumor cell inoculation, water solution
[8] = dose 6.6 mg/Kg i.p. on day 1, water solution
[9] = dose 6.6 mg/Kg i.p. on day 1 after tumor cell inoculation, water solution

SMILES	T/C % [1, 3] [%]	Toxic Deaths [1, 3]	T/C % [1, 4] [%]	Toxic Deaths [1, 4]	T/C % [1, 5] [%]	Toxic Deaths [1, 5]	IC50 ([2]; HeLa cells, 24 hours exposure) [ng/mL]	antitumor activity compared with daunorubicin and doxorubicin [1]	Toxic Deaths [1, 6]	T/C % [1, 7] [%]	Toxic Deaths [1, 8]	T/C % [1, 9] [%]	Toxic Deaths ([1]; dose 10.0 mg/Kg i.p. on day 1, water solution)	T/C % ([1]; dose 10.0 mg/Kg i.p. on day 1 after tumor cell inoculation, water solution) [%]	IC50 ([2]; HeLa, 24 h) [ng/mL]	Toxic Deaths ([1]; dose 2.9 mg/Kg i.p. on day 1, water solution)	T/C % ([1]; dose 2.9 mg/Kg i.p. on day 1 after tumor cell inoculation, water solution) [%]
COc1cccc2c1C(=O)c1c(O)c3c(c(O)c1C2=O)C[C@@](O)(C(=O)CO)C[C@@H]3O[C@H]1CC(C=O)[C@H](C)O1 (stereo partly drawn) [Compound III (R3 = OH), 7-O-(2,3,5-trideoxy-3-C-formyl-α-pentofuranosyl)-adriamycinone]	163	0/9	190	0/9	231	1/7	140 (≈ 0.266 µM)										
COc1cccc2c1C(=O)c1c(O)c3c(c(O)c1C2=O)C[C@@](O)(C(C)=O)C[C@@H]3O[C@H]1CC(C=O)[C@H](C)O1 (single isomer, unassigned) [Compound III-b]	110	0/10	110	0/10	125	0/9	1.75 (≈ 0.00343 µM)										
COc1cccc2c1C(=O)c1c(O)c3c(c(O)c1C2=O)C[C@@](O)(C(=O)CO)C[C@@H]3O[C@H]1CC(C=O)[C@H](C)O1 (stereo partly drawn) [III (R3 =OH)]								higher than or comparable to those of both daunorubicin and doxorubicin									
COc1cccc2c1C(=O)c1c(O)c3c(c(O)c1C2=O)C[C@@](O)(C(C)=O)C[C@@H]3O[C@H]1CC(CO)[C@H](C)O1 (stereo partly drawn) [Compound IV (R3 = H), 7-O-(2,3,5-trideoxy-3-C-hydroxymethyl-α-L-threopentofuranosyl)-daunomycinone]	130	0/7	160	0/6	220	0/5	1.6 (≈ 0.00312 µM)	higher than or comparable to those of both daunorubicin and doxorubicin									
COc1cccc2c1C(=O)c1c(O)c3c(c(O)c1C2=O)C[C@@](O)(C(C)=O)C[C@@H]3O[C@H]1CC(C=O)[C@H](C)O1 (stereo partly drawn) [Compound III-a, 7-O-(2,3,5-trideoxy-3-C-formyl-α-L-threopentofuranosyl)-daunomycinone]	168	0/8	163	0/5	190	2/5	320 (≈ 0.627 µM)	higher than or comparable to those of both daunorubicin and doxorubicin									
COc1cccc2c1C(=O)c1c(O)c3c(c(O)c1C2=O)C[C@@](O)(C(=O)CO)C[C@@H]3O[C@H]1C[C@H](N)[C@H](O)[C@H](C)O1 [Doxorubicin . HCl, doxorubicin, reference compound]									0/17	195	0/17	206	4/18	244	10		
COc1cccc2c1C(=O)c1c(O)c3c(c(O)c1C2=O)C[C@@](O)(C(C)=O)C[C@@H]3O[C@H]1C[C@H](N)[C@H](O)[C@H](C)O1 [Daunorubicin . HCl, daunorubicin, reference compound]									0/38	167	19/38	157			7.4	0/37	169
